The values below come from patent US20260234660A1, “TREATMENT OF MUSCLE RELATED DISORDERS WITH ANTI-HUMAN CACNG1 ANTIBODIES” (Regeneron Pharmaceuticals, Inc., priority 2023, published 2026).

Where a name gives a salt, the structure may show the parent alone.

This test deals with human myotubes. Description: Acetylcholine-induced calcium flux assay in human myotubes (FLIPR). In kind it is cell-based. To be noted: 20 μM nicardipine, positive control for calcium blocking. Here is the method:
CACNG1 is the γ1 subunit of the skeletal muscle specific L-type calcium channel, (dihydropyridine receptor), though genetic deletion of CACNG1 appears to have no major impact on skeletal muscle function. To determine whether antibodies that bind CACNG1 impact muscle function, a calcium flux assay was performed on human myotubes that were incubated with CACNG1 antibodies to determine whether these antibodies affect acetylcholine-induced calcium release.
Human skeletal myoblasts (Cook Myosite, Inc.) were plated at 10,000 cells/well of a 96-well plate and were differentiated for 7 days into myotubes. On the final day of differentiation, media was replaced with 50 μL of FLIPR calcium 5 dye with probenecid (Invitrogen) and 50 uL of assay buffer (0.1% BSA-DMEM) per well. CACNG1 and isotype control antibodies were serial diluted in assay buffer and added to the cells and incubated at 37° C. in a 5% CO2 incubator for 1 hour prior to the calcium flux assay. Nicardipine hydrochloride (Sigma) was added to untreated wells to serve as a control for calcium channel blockade. After 1 hour, acetylcholine (Sigma) was added at a 20 uM final concentration to induce myotube calcium release, and plates were assayed on a FLIPR Tetra (Molecular Devices, LLC).
(Calcium assays in cells follow changes in intracellular calcium, usually with a dye or a luminescent sensor.)

As for `COC(=O)C1=C(C)NC(C)=C(C(=O)OCCN(C)Cc2ccccc2)C1c1cccc([N+](=O)[O-])c1` (stereo not shown) [nicardipine, Nicardipine hydrochloride, reference compound], the “effect on human myotube calcium release” value was “substantially reduced human myotube calcium release”.
